Legend:
[1] = target: T1, M5 (h) (Homo sapiens, UniProt P08912); experiment: Radioligand binding panel, M5 (h) (antagonist radioligand); details: % inhibition of control specific binding
T1 construct: Eurofins (contract panel)
T1 sequence (P08912 1-532): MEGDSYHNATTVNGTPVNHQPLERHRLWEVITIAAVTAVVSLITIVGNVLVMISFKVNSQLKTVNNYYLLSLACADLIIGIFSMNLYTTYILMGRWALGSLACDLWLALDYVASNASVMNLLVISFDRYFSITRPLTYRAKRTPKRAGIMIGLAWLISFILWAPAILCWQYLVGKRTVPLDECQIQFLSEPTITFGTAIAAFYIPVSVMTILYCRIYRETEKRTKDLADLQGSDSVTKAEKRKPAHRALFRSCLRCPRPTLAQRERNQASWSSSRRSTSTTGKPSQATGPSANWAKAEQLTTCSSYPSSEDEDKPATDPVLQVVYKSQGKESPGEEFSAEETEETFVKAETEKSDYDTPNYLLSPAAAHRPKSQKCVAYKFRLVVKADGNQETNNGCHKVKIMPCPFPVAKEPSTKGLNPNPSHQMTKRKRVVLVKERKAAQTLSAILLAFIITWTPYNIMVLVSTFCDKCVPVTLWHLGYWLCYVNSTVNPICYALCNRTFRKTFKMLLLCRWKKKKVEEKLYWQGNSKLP
Protocol: (§1) Oxafuramine is tested at 10^−5 M, calculated as a % inhibition of control specific binding of a radioactively labeled ligand specific for each target.
(§2) This binding profile panel was broadly defined with roughly an equal number of selective, central and peripheral therapeutically relevant targets, including native animal tissues, radioligands and specific enzymes involved in cell cycle regulation in accordance with Eurofins Standard Operating Procedure (www.eurofins.fr).
(§3) For radioligand binding experiments, the half maximal inhibitory concentration (IC50) and the half maximal effective concentration (EC50) values were determined (via computer software) by nonlinear regression analysis of the competition curves using Hill equation curve fitting. The inhibition constants (Ki) were calculated using the Cheng-Prusoff equation (Ki=IC50/(1+(L/KD)), where L is the concentration of radioligand in the assay, and KD is the affinity of the radioligand for the receptor.
(§4) The results are expressed as a % control specific binding ([measured specific binding/control specific binding]×100) and as a % inhibition of control specific binding (100−[(measured specific binding/control specific binding)×100]) obtained in the presence of the test compounds. […]

[2] = target: T2, GABA-A1 (Homo sapiens, UniProt P14867+P47870); experiment: Radioligand binding panel, GABA-A1 (antagonist radioligand); details: 10^−5 M; % inhibition of control specific binding
T2 construct: Eurofins (contract panel)
Protocol: as §1, §2, §3, §4

[3] = test system: memory (recognition of the familiar object) in mice; experiment: Novel Object Recognition (NOR) test in mice; format: in vivo, C57BL/6J, male; details: choice trial, mean, N = 16
Protocol: The test was carried out in circular boxes (30 cm diameter, 40 cm high). The objects to be discriminated (L≈1≈h≈3-4 cm) differed in both color and shape and were referred as yellow duck and blue lego. They were fixed with a magnet to the floor of the boxes at 5 cm of the wall, 20 cm distant. Apparently, they have no natural significance for mice and they have never been associated with a reinforcement. In order to rule out the possibility of scent traces left on the objects and therefore the dependency of the recognition capacity of mice on the olfactory cue, the objects and the ground of the box were washed with an odorless disinfectant (Sanicid® diluted in water) and dried between each trial. A camcorder was fixed to the ceiling above the box to record the animals' activity. The experiment was analyzed blindly at a later time.
On the week before the test, animals were handled by the experimenter in charge of the experiment in order to be not stressed at the time of testing. For this purpose, the experimenter placed a small amount of litter, and then the mouse on its hand.
The NOR test was completed over five days (see FIG. 1): • Day 1: Habituation trial. Animals were individually placed for a 15-min free exploration session in empty open boxes. • Day 2. Treatment administration and sample trial. […] They were individually placed 30 min after in the apparatus for a 6-min session with two identical objects (Duck, 50% of animals or Lego, 50% of animals). • Day 3. Choice trial. The mice were individually placed for a 6-min session in the apparatus with two objects (Duck and Lego), one of the objects presented in sample trials (termed as familiar objects) and a novel object (Lego, 50% of animals or Duck, 50% of animals).
The sample and choice trials were recorded with the camera located above the apparatus. The time spent by mice in exploring the objects was measured during the sample trial and the choice trial. Exploration of an object was defined as follows: directing the nose to the object at a distance≤2 cm and/or touching it with the nose or forelimbs; turning around or biting the object, or sitting on the object were not considered as exploratory behavior.
• L=exploration time of the left object in the sample trial. • R=exploration time of the right object in the sample trial. • N=exploration time of the new object in the choice trial. • F=exploration time of the familiar object in the choice trial.
• Exploration indices: • ST=L+R=exploration time (left object+right object) in the sample trial. • CT=N+F=exploration time (new object+familiar object) in the choice trial. • Two memory indices: • N-F=difference of exploration time between the new object and the familiar object in the choice trial.
(§5) Statistical analyses: • Read-outs: DI, N-F, ST, CT, N, F • Unpaired Student's t test: Donep 2 group vs. Control group. • One-way ANOVA, Dunnett test: • NLS-12 groups vs. Control group. • NLS-12 groups vs. Donep 2 group. • Read-outs: DI and N-F, for all groups, paired Student's t test, difference vs. 0. • Body weight: one-way ANOVA.

[4] = target: T3, DAT (h) (Homo sapiens, UniProt Q01959); experiment: Radioligand binding panel, DAT (h) (antagonist radioligand); details: % inhibition of control specific binding
T3 construct: Eurofins (contract panel)
Protocol: as §1, §2, §3, §4

[5] = Body weight of the mice in the NOR study; format: in vivo, C57BL/6J, male; details: mean, N = 16
From the text: as §5

T3 sequence (Q01959 whole entry): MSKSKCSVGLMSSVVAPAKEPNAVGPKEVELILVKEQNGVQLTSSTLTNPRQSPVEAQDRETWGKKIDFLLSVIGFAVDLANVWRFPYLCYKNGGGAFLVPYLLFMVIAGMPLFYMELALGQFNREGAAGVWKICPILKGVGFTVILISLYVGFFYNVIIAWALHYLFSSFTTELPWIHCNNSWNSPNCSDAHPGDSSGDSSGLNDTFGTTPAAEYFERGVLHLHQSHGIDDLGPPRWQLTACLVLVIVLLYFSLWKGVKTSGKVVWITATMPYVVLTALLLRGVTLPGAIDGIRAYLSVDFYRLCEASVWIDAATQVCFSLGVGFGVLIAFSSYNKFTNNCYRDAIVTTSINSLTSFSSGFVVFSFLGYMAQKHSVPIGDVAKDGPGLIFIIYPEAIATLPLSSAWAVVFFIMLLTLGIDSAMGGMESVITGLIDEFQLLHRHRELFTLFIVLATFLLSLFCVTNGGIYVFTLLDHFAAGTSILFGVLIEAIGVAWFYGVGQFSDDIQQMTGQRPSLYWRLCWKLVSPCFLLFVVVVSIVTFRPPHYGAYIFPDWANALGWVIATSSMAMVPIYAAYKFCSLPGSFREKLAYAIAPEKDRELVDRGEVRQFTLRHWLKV
T2 sequence (P14867 28-456): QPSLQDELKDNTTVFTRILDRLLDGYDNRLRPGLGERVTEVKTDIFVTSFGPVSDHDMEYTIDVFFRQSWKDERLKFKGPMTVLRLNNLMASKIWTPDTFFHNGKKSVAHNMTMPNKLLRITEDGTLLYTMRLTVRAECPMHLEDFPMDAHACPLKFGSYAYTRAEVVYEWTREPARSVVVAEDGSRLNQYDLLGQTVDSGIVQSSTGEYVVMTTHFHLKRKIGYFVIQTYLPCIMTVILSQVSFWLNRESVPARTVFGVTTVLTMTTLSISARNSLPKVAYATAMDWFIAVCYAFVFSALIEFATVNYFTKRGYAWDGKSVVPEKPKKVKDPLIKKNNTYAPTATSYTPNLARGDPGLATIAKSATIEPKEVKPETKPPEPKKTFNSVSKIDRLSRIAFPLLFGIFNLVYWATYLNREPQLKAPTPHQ
T2 sequence (P47870 25-512 limits assumed): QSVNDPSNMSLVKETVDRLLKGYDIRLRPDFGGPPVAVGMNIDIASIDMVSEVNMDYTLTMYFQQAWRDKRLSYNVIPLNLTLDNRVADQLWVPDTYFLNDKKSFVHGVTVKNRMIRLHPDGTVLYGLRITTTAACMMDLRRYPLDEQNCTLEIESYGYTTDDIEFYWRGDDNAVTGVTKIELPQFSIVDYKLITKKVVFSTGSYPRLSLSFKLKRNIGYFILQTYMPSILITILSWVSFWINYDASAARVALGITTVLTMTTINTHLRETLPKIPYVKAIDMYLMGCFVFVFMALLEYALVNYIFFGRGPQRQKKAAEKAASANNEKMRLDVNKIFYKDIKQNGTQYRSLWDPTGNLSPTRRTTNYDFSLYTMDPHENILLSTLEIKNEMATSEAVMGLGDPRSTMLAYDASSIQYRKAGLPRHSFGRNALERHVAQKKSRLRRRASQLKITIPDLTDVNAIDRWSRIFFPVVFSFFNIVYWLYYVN
T2 sequence (P18507 40-475 partner): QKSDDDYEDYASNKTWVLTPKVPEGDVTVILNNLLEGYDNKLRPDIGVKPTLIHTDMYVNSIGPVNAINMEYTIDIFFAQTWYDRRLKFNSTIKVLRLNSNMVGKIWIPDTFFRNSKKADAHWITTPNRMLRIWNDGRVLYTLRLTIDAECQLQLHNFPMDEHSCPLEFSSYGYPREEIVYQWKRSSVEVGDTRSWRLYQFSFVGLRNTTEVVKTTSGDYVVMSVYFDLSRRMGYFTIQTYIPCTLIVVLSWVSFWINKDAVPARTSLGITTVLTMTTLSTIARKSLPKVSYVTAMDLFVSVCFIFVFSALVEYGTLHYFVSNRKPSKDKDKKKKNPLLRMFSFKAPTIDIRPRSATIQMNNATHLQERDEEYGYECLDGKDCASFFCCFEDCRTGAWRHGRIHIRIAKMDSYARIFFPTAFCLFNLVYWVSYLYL

Which inhibition at 10 µM ([1]; 10^−5 M) does the source give for CCN[C@H](Cc1ccccc1)[C@H]1CCCO1 [Oxafuramine, (1R)—N-ethyl-1-[(2R)-oxolan-2-yl]-2-phenylethanamine] here?
The inhibition at 10 µM was roughly 25%.

And the “% Inhibition at 10^−5M, M5 (h) (antagonist radioligand)” value [1]?
Its value is 25.4%.

And the inhibition at 10 µM [2]?
Its inhibition at 10 µM is 19.2%.

And the “F Exploration time of familiar object” value ([3]; NLS-12 1 mg/kg i.p.)?
The value was 12.0 s.

What about the “N Exploration time of novel object” value ([3]; NLS-12 1 mg/kg i.p.) of the same compound?
The value was 12.6 s.

And the “F Exploration time of familiar object” value ([3]; NLS-12 4 mg/kg i.p.)?
Its value is 11.0 s.

And the “N Exploration time of novel object” value ([3]; NLS-12 4 mg/kg i.p.)?
The value was 14.7 s.

What about the “F Exploration time of familiar object” value ([3]; NLS-12 8 mg/kg i.p.) of the same compound?
Its value is 9.9 s.

And the “N Exploration time of novel object” value ([3]; NLS-12 8 mg/kg i.p.)?
Its value is 15.9 s.

And the inhibition at 10 µM ([4]; 10^−5 M)?
Its inhibition at 10 µM is 94.1%.

What about the “% Inhibition at 10^−5M, DAT (h) (antagonist radioligand)” value [4] of the same compound?
The value was “appreciable potencies”.

And the “BW Body weight” value ([5]; NLS-12 1 mg/kg i.p. group)?
Its value is 22.8 g.

And the “BW Body weight” value ([5]; NLS-12 4 mg/kg i.p. group)?
The value was 23.5 g.

And the “BW Body weight” value ([5]; NLS-12 8 mg/kg i.p. group)?
The value was 22.9 g.

From patent US20250268859A1, “OXAFURAMINE, (1R)-N-ETHYL-1-[(2R)-OXOLAN-2-YL]-2-[…], HYDROCHLORIDE AND DERIVATIVES THEREOF FOR TREATING ALZHEIMER'S DISEASE (AD), […] […], […] WITH LEWY BODIES (DLB), MIXED […], FRON[…] DEGENERATION (FTLD), AND PARKINSON'S DISEASE (PD)” (NLS Pharmaceutics AG, priority 2021, published 2025)
